In patent publication EP4745138A1, “THIO-GLUTARIMIDO ISOINDOLINONE DERIVATIVE, BIFUNCTIONAL PROTEIN DEGRADER CONTAINING SAME, AND USES THEREOF” (Gluetacs Therapeutics (Shanghai) Co., Ltd., priority 2023, dated 2025):

Assays:
[1] = target: T1, human Cereblon WT GST-tagged protein (Homo sapiens, UniProt Q96SW2); test: CRBN-binding affinity, HTRF (CEREBLON BINDING kit); conditions: for inhibition at 0.5 µM: read-out: Inhibition Rate at 0.5 µM (%); for inhibition at 2 µM: read-out: Inhibition Rate at 2 µM (%)
T1 construct: purchased CISBIO 64BDCRBNPEH
Procedure, shortened: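 Readout is homogeneous time-resolved fluorescence, measuring displacement of a thalidomide-red tracer from GST-tagged Cereblon detected by a europium anti-GST antibody. Compounds were tested at final 2 µM and 0.5 µM after dilution in diluent #9 (1X).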

[2] = system: SR; test: Tumor cell proliferation inhibition (CellTiter-Meiluncell Luminescent Cell Viability Assay); conditions: Homo sapiens, 96 hours, Table I-1, designed based on the ALK inhibitors, read-out: Inhibitory activity (IC50, nM) SR
Experimental: (§1) The tumor cells used herein were cultured in a cell culture medium listed in table 3 at 37°C in an incubator with 5% CO2. Prior to experimentation, all cell lines used were correctly identified by STR profiling, and tested negative for mycoplasma contamination using a mycoplasma detection kit through routine screenings. Table 3. Tumor cells and cell culture medium used in the present disclosure
(§2) The IC50 values of the compounds of the present disclosure (including the compounds in Table 1, Table 2, and Examples) were determined using the CellTiter-Meiluncell Luminescent Cell Viability Assay Kit from Dalian Meilun Biotech Co., Ltd. The detailed procedure is as follows: Tumor cells were seeded in 96-well cell culture plates at the densities specified in Table 4. On the following day, the test compounds of the present disclosure were subjected to serial dilution. […] Subsequently, 0.5 µL of the test compound dilution was transferred into the 96-well plate containing the cells, with each well containing 100 µL of cell culture medium. […] Into the 96-well plate, the diluted test compounds and corresponding detection reagents were added, resulting in final test compound concentrations of 500 nM and 10 nM, respectively. The experimental procedure is described below using the diluted 2 µM test compound as an example.
(§3) 0.5 µL of the aforementioned diluted compound of the present disclosure (including the compounds in Table 1, Table 2, and Examples) was added to the seeded cells in 100 µL of medium, yielding a final test compound concentration of 10 nM. After the cells were treated with the compounds of the present disclosure for a specified period, the cell viability assay reagent was added to the culture medium according to the kit's instructions to determine cell viability. […] All controls were treated using the same procedure as the compounds of the present disclosure. […] Seeding protocol and treatment time for tumor cells

[3] = system: HCC827; test: as above; conditions: Homo sapiens, 96 hours, Table I-1, designed based on the ALK inhibitors, read-out: Inhibitory activity (IC50, nM) HCC827
Experimental: as §1, §2, §3

[4] = target: T2, ALK (Homo sapiens, UniProt Q96SW2+Q9HC35+Q9UM73); test: Western blot, target protein degradation in H2228 Cell; type: cell-based; conditions: substrate protein remaining %, treated at 500 nM and 50 nM, 24 hours
T2 construct: endogenous in cells; host or cells: H2228
Procedure, shortened: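 Target protein levels after compound exposure are quantified by immunoblot of denatured cell lysates. DC50 reflects the drug concentration at which band intensity falls to half that of DMSO-treated cells.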

[5] = target: T3, IRAK4 (Homo sapiens, UniProt Q9NWZ3); test: Western blot, target protein degradation in hPBMC Cell; type: cell-based; conditions: substrate protein remaining %, treated at 50 nM and 500 nM, 24 hours
T3 construct: endogenous in cells; host or cells: hPBMC
Experimental: (§4) Conventional Western blot assay was performed to evaluate the effects of the compounds of the present disclosure on the expression of target proteins in cells.
(§5) (1) Cell Seeding and Protein Harvesting: The selected cells were processed according to the cell seeding procedure and protein harvesting procedure in Table II-2. Table II-2 Cell Seeding and Protein Harvesting Procedures
(§6) (2) To the collected supernatant, 5X SDS sample loading buffer was added, followed by denaturation at 95°C for 5 minutes. The denatured samples were then separated by SDS-PAGE electrophoresis on a polyacrylamide gel. Proteins were transferred to a nitrocellulose membrane (0.45 µm NC membrane), blocked with blocking buffer at room temperature for 1 hour, and subjected to antibody incubation and development procedures according to the antibody manufacturer's instructions (Cell Signaling Technology).
(§7) Half-Maximal Degradation Concentration value (the drug concentration required for degrading proteins by 50%, abbreviated as DC50) reads method: comparing the grayscale values of Western blot bands from drug-treated samples with those from blank DMSO-treated controls, and identifying the drug concentration range at which the grayscale value is half that of the DMSO-treated control bands.
(§8) DC50 values can be calculated using ImageJ software to measure grayscale values of Western blot bands from drug-treated samples. The concentration-response curve is fitted to estimate the drug concentration corresponding to half the grayscale value.
(§9) Target protein remaining (%) refers to the percentage of target protein remaining in cells after treatment with protein degrader compounds.
(§10) Calculation method for target protein remaining (%): Use ImageJ software to measure grayscale values of Western blot bands from drug (protein degrader)-treated samples. The grayscale value of drug-treated bands is divided by that of internal control protein bands, and the resulting quotient is normalized to obtain the relative percentage of remaining target protein after protein degrader treatment. Target protein degradation rate(%) = 1−target protein remaining(%). [formula]

[6] = system: Tau; test: Western blot, target protein degradation in H4 Cell; type: cell-based; conditions: substrate protein remaining %, treated at 500 nM and 50 nM, 24 hours
Experimental: as §4, §5, §6, §7, §8, §9
as §10, with “Target protein degradation rate(%) = 1−target protein remaining(%). [formula]” left out

[7] = system: CFPAC-1; test: Tumor cell proliferation inhibition (CellTiter-Meiluncell Luminescent Cell Viability Assay); type: cell-based; conditions: Homo sapiens, 96 hours, Table I-2, ALK inhibitors
Procedure, shortened: (§11)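 Cells were grown at 37°C under 5% CO2, seeded into 96-well plates, and dosed with compound on the next day. After a set treatment period, viability was read by luminescence with the CellTiter-Meiluncell reagent and IC50 values were derived. Final compound concentrations included 500 nM and 10 nM.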

[8] = system: MCF-7; test: as above; type: cell-based; conditions: Homo sapiens, 96 hours, Table I-2, ALK inhibitors
Procedure, shortened: (§12)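 Following overnight seeding, tumor cells received serial compound dilutions to final levels that included 10 nM and 500 nM. Viability was assessed by luminescence at the end of the specified exposure time. Cultures were kept at 37°C with 5% CO2.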

[9] = system: MM.1S; test: as above; type: cell-based; conditions: Homo sapiens, MM1.S, MM.1S, 96 hours, Table I-2, ALK inhibitors
Procedure, shortened: as §12

[10] = system: A375; test: as above; type: cell-based; conditions: Homo sapiens, 96 hours, Table I-2, ALK inhibitors
Procedure, shortened: as §11

[11] = system: MV-4-11; test: as above; type: cell-based; conditions: Homo sapiens, 96 hours, Table I-2, ALK inhibitors
Procedure, shortened: as §12

[12] = 10 nM, read-out: Inhibition Rate at 10 nM (%)
[13] = 500 nM, read-out: Inhibition Rate at 500 nM (%)

T1 sequence (Q96SW2 whole entry): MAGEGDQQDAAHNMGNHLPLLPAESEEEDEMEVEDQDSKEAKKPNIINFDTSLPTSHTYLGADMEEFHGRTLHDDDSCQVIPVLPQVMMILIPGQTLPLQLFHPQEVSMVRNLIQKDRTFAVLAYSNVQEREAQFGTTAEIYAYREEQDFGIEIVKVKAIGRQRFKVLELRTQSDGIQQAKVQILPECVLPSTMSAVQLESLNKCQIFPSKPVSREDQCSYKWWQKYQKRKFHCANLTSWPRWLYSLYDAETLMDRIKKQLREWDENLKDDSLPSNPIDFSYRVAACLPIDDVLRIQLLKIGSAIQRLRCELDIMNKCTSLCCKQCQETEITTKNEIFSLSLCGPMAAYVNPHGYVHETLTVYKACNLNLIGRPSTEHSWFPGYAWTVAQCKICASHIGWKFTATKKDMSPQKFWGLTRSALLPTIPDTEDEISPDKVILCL
T3 sequence (Q9NWZ3 whole entry): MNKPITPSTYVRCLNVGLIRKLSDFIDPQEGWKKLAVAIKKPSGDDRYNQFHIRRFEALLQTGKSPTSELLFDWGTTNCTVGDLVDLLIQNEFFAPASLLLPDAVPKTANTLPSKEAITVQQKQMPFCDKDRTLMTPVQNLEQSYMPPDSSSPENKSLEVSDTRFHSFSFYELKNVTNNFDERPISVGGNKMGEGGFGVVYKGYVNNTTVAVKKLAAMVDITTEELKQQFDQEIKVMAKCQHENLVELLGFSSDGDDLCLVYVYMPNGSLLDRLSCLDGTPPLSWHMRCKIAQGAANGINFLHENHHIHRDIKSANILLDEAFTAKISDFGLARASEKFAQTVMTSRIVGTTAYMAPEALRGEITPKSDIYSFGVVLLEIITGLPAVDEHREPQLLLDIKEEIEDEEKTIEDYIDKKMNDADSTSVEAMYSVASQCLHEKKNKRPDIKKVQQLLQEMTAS
T2 sequence (Q9HC35+Q9UM73 fused): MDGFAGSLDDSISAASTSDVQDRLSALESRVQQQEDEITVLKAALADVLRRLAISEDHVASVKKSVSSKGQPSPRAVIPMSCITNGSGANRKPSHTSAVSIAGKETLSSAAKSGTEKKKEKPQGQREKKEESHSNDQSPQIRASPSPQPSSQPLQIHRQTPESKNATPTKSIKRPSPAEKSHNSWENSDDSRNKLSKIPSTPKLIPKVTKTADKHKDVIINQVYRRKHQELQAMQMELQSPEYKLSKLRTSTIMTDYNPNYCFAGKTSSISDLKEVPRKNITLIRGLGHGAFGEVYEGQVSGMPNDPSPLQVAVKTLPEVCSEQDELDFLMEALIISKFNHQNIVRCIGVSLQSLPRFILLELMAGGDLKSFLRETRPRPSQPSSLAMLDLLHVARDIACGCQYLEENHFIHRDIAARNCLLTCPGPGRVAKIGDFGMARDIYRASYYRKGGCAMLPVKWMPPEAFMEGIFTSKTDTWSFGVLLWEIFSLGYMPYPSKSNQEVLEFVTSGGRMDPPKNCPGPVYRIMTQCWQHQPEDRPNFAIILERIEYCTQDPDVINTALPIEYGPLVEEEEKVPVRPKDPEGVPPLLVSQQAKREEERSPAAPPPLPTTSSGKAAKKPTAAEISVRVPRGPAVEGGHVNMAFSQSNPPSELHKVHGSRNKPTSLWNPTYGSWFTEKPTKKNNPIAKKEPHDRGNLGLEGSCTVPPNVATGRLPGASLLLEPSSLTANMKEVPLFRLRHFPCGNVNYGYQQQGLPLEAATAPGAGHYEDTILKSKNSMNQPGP
T2 sequence (Q96SW2 whole entry): as the sequence (Q96SW2 whole entry) above
T2 sequence (Q16531 whole entry partner): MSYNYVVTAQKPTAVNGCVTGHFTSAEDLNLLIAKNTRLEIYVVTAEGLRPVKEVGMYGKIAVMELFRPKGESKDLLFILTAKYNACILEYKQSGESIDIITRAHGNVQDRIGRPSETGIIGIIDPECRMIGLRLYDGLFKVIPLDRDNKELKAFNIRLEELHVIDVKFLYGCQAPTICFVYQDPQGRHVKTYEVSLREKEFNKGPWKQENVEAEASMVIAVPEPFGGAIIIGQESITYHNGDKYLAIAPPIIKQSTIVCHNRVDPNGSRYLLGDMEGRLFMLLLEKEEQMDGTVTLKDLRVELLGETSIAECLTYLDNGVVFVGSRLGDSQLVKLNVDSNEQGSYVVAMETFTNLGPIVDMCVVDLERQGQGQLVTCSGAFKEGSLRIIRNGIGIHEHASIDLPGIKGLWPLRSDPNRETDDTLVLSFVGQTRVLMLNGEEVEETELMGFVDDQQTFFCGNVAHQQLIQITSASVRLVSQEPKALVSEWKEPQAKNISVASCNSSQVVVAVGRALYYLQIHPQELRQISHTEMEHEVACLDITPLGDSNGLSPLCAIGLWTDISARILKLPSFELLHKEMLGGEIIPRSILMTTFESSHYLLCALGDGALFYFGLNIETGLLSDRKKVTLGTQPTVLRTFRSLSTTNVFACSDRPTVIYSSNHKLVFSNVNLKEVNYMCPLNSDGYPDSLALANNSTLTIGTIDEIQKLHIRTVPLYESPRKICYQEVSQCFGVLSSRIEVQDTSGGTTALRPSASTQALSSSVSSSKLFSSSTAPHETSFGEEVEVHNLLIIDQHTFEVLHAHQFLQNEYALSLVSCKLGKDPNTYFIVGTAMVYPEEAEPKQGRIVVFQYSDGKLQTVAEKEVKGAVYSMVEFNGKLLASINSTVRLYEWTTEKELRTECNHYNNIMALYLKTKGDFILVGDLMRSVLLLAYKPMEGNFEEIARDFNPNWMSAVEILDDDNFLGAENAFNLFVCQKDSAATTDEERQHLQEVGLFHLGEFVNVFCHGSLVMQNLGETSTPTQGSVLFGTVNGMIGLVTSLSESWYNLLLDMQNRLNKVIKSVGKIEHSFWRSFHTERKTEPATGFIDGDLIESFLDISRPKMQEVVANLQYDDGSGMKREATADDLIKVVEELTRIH

inhibition at 0.5 µM [1] [%]	inhibition at 2 µM [1] [%]	IC50 [2] [nM]	IC50 [3] [nM]	SMILES	Degradation of substrate protein Tau [6]	also measured
60 to 80	60 to 80	10 to 20	500 to 1000	CCc1cc2c(cc1N1CCC(N3CCN(Cc4ccc5c(c4)C(=S)N(C4CCC(=O)NC4=O)C5)CC3)CC1)C(C)(C)c1[nH]c3cc(C#N)ccc3c1C2=O (centres unmarked) [GT-05030, 8-(4-(4-((2-(2,6-dioxopiperidin-3-yl)-3-thioxoisoindolin-5-yl)methyl)piperazin-1-yl)piperidin-1-yl)-9-ethyl-6,6-dimethyl-11-oxo-6,11-dihydro-5H-benzo[b]carbazole-3-carbonitrile]	–	Degradation of substrate protein ALK [4]: A (0% ≤ substrate protein remaining % ≤ 80%)
60 to 80	80 to 100	–	–	CC(C)(O)c1cc2nn(C3CCN(Cc4ccc5c(c4)CN(C4CCC(=O)NC4=O)C5=S)CC3)cc2cc1NC(=O)c1cccc(C(F)(F)F)n1 (centres unmarked) [GT-05297, N-(2-(1-((2-(2,6-dioxopiperidin-3-yl)-1-thioxoisoindolin-5-yl)methyl)piperidin-4-yl)-6-(2-hydroxypropan-2-yl)-2H-indazol-5-yl)-6-(trifluoromethyl)picolinamide]	–	Degradation of substrate protein IRAK4 [5]: A (0% ≤ substrate protein remaining % ≤ 80%)
53 to 60	60 to 80	–	–	O=C1CCC(N2Cc3cc(CN4CCN(c5ccc(-c6ccc7c8cnccc8n(C(F)F)c7c6)cn5)CC4)ccc3C2=S)C(=O)N1 (centres unmarked) [GT-08979, 3-(5-((4-(5-(5-(difluoromethyl)-5H-pyrido[4,3-b]indol-7-yl)pyridin-2-yl)piperazin-1-yl)methyl)-1-thioxoisoindolin-2-yl)piperidine-2,6-dione]	A (0% ≤ substrate protein remaining % ≤ 80%)	–
60 to 80	80 to 100	–	–	O=C1CCC(N2Cc3cc(CN4CCN(c5ccn6c(n5)nc5ccccc56)CC4)ccc3C2=S)C(=O)N1 (centres unmarked) [GT-08981, 3-(5-((4-(benzo[4,5]imidazo[1,2-a]pyrimidin-2-yl)piperazin-1-yl)methyl)-1-thioxoisoindolin-2-yl)piperidine-2,6-dione]	A (0% ≤ substrate protein remaining % ≤ 80%)	–
–	–	> 10000	> 10000	C[C@H]1Oc2cc(cnc2N)-c2c(nn(C)c2C#N)CN(C)C(=O)c2ccc(F)cc21 [lorlatinib, reference compound]	–	inhibition at 0.01 µM [7, 12]: 10 to 20%; inhibition at 0.5 µM [7, 13]: 20 to 30%; inhibition at 0.01 µM ([8]; MCF7, 10 nM, read-out: Inhibition Rate at 10 nM (%)): 10 to 20%; inhibition at 0.5 µM ([8]; MCF7, 500 nM, read-out: Inhibition Rate at 500 nM (%)): 20 to 30%; inhibition at 0.01 µM [9, 12]: -5 to 0%; inhibition at 0.5 µM [9, 13]: -20 to -10%; inhibition at 0.01 µM ([10]; A-375, 10 nM, read-out: Inhibition Rate at 10 nM (%)): 10 to 20%; inhibition at 0.5 µM ([10]; A-375, 500 nM, read-out: Inhibition Rate at 500 nM (%)): 10 to 20%; inhibition at 0.01 µM ([11]; MV4-11, 10 nM, read-out: Inhibition Rate at 10 nM (%)): -20 to -10%; inhibition at 0.5 µM ([11]; MV4-11, 500 nM, read-out: Inhibition Rate at 500 nM (%)): -5 to 0%
